The values below come from US6617118B2, “Monoclonal antibody for analysis and clearance of polyethylene glycol and polyethylene glycol-modified molecules” (priority 1999, dated 2003).

Data set [1] can be described thus: Toxicity of clearance and BHAMG prodrug administration. Type of data set: in vivo, BALB/c mice. The note with it: AGP3 and 15 mg/kg BHAMG, no βG-sPEG. Here is the method:
Toxicity of Clearance: The numbers of WBC, RBC, and PLT in groups of 6 BALB/c mice were measured as described (Chen et al., 1997) 1 day before i.v. injection of 50 μg of βG-PEG or PBS. […] On day 8, the numbers of WBC, RBC, and PLT in […] samples were determined. On days 3 and 10, the spleen, liver and kidney were removed from one mouse in each group and fixed in 10% formalin. Ethanol dehydrated samples were embedded in paraffin and cut into 3 μm sections. Sections were then dewaxed with xylene, stained with hematoxylin/eosin, and dehydrated before observation under a light microscope. The weight of mice was followed for 18 days.
One concern of employing IgM to clear proteins is that the immune complexes could be deposited in organs and cause tissue damage. In addition, deposition of βG-PEG on the surface of cells could result in prodrug activation and tissue toxicity. […] Mice were injected with PBS (A-C) or βG-sPEG (D-F) on day 1. […] Tissue sections of liver (A, D), kidney (B, E), and spleen (C, F) recovered 10 days later were stained with hematoxylin and eosin. […] Similarly, no tissue damage was observed 3 days after prodrug administration (results not shown).
Groups of 4 mice were i.v. injected at time zero with PBS (control) or βG-sPEG. […] Six hours later, all mice were i.v. injected with BHAMG. […]

Another data set concerns LS174T tumor xenografts. The data set is described as follows: Therapy of LS174T tumor xenografts. On the procedure:
Therapy of LS174T Tumor Xenografts: Groups of 9 BALB/c nu/nu mice were s.c. injected on the right flank with 5×10^6 LS174T cells on day 1. […] 48 and 50 h later mice were i.v. injected with 2 sequential doses of 300 and 200 μg AGP3. […] Therapy was repeated starting on days 16, 26, and 41. All mice received 2-4 rounds of therapy. Tumor volumes (length×width×height×0.5) were measured twice a week and mice weight was followed as an estimate of treatment toxicity. […] Groups of 8 BALB/c nu/nu mice bearing larger 200-250 mm^3 tumors were also treated as above with 2 rounds of therapy starting on days 11 and 23.
Therapy was repeated starting on days 16, 26 and 41. […] Bars indicate the standard error of the mean. […] Soluble IgM immune complexes are primarily removed from the circulation and catabolized by the mononuclear phagocyte system in the liver, spleen and lungs by receptor-mediated binding of high mannose oligosaccharides exposed upon conformational changes in IgM induced by antigen binding (Day et al., 1980).

For the next data set, the system named is LS174T cells. The data set is described as follows: Drug sensitivity of LS174T cells ([3H]-leucine incorporation). The settings on record: BHAMG plus 1 μg/well βG, 24 h.

Each structure is given as a SMILES string.

Method for LS174T cells: Drug sensitivity of LS174T cells: LS174T cells were plated overnight in 96 well microtiter plates at 40,000 cells per well. […] Cells were subsequently washed once with sterile PBS, incubated until hour 48 in fresh leucine-free medium and then pulsed for 12 h with [^3H]-leucine (1 μCi/well) in fresh medium and harvested with a Filter-mate (Packard). Incorporated radioactivity was determined on a Top-Count scintillation counter (Packard). Results are expressed as percentage inhibition of [^3H]-leucine incorporation compared with untreated cells (control) by the following formula: [formula]
The cellular protein synthesis rate of drug-treated cells is compared to untreated control cells. Bars indicate the standard error of triplicate determinations.

Consider `O=C(O)[C@H]1O[C@@H](Oc2ccc(N(CCCl)CCCl)cc2)[C@H](O)[C@@H](O)[C@@H]1O` [BHAMG], for which the “weight of mice, control group” value in data set [1] is on record as “only a small transient decrease”. Further, the Weight loss % in the data set on LS174T tumor xenografts (Round of therapy 1) is 1.7%; in the data set on LS174T tumor xenografts (Round of therapy 2), 4.0%; in the data set on LS174T tumor xenografts (Round of therapy 3) it was 1.7%. For the same compound, the “cytotoxic effect with simultaneous addition of βG” value with LS174T cells is “cytotoxic effect equal to pHAM alone”.
